Results from the NIST ThermoML archive (doi:10.1016/j.jct.2012.01.018).
Numbers after ± are expanded uncertainties.

Legend:
[1] = Crystal; visual observation
[2] = molar enthalpy of vaporization or sublimation; settings: 298.15 K; Crystal; drop calorimetry

Normal melting temperature [1]: 110 ± 1 °C
molar enthalpy [2]: 24.3 ± 2.06 kcal/mol
Compound: O=[N+]([O-])c1cccc2nsnc12 [4-nitro-2,1,3-benzothiadiazole]
